The results in this text go back to patent publication US20260365633A1, “Novel PEM Structures for SBX” (Roche Sequencing Solutions, Inc., priority 2023, published 2026).

One assay deals with DNA polymerase. In words: Primer extension with XNTPs, gel electrophoresis (PEM screen, 45mer template). The class given is biochemical. As to conditions: for primer extension products with XNTPs: 45mer template, FIG. 4, vs no PEM additive (up to only around 14 XNTPs). The source says:
The Sequencing by Expansion (SBX) methodology developed by the inventors provides significant performance enhancements in sequence read efficiency and accuracy of Xpandomers relative to native DNA. However, initial transcription of the sequence of the natural DNA template onto the measurable Xpandomer relies on the ability of DNA polymerase to utilize XNTPs as substrates (the generalized structure of an XNTP is discussed herein with reference to FIG. 1A and FIG. 2). […] In an effort to improve the efficiency and accuracy of XNTP polymerization into Xpandomers, several PEMs were screened for the ability to enhance DNA polymerase primer extension reactions using XNTPs as substrates.
A representative primer extension reaction may include the following reagents: 2 pmol primer, 2.2 pmol 45mer [COMPOUND LEFT OUT] template, 50 pmol of each XNTP (XATP, XCTP, XGTP, and XTTP), 50 Mm Tris HCl, Ph 6.79, 200 Mm NaCl, 20% PEG, 5% NMS, 0.5 nmol polyphosphate 60.19, 0.3 Mm MnCl2, and 0.6 μg of purified recombinant DNA polymerase protein. Reactions may be run for 1 hour at 23 °C. Reaction products (i.e., constrained Xpandomers) are treated to cleave the phosphoramidate bonds, thereby generating linearized Xpandomers. Reaction products may be analyzed using gel electrophoresis on 4-12% acrylamide gels to resolve and visualize Xpandomer products of different lengths. For the PEM screen described above, PEMs were typically tested in the micro to millimolar range.

Assay [1] deals with T1, C4760 DNA polymerase (a variant of DPO4) (Saccharolobus solfataricus, UniProt Q97W02, A155G/A42V/D156R/D292Y/D294N/E291S/E324K/E325K/E327K/E63R/E79L/G187P/G299W/I153V/I189F/I248T/I295S/K152A/K317Q/K321Q/K56Y/K78D/L293W/M76W/N188Y/P184Q/Q82W/Q83G/R300S/S297Y/S86E/T290K/T301W/V289W/V296Q).
T1 construct: Eco or Kod SSB in reaction as additive
T1 sequence (Q97W02 1-340 A155G/A42V/D156R/D292Y/D294N/E291S/E324K/E325K/E327K/E63R/E79L/G187P/G299W/I153V/I189F/I248T/I295S/K152A/K317Q/K321Q/K56Y/K78D/L293W/M76W/N188Y/P184Q/Q82W/Q83G/R300S/S297Y/S86E/T290K/T301W/V289W/V296Q): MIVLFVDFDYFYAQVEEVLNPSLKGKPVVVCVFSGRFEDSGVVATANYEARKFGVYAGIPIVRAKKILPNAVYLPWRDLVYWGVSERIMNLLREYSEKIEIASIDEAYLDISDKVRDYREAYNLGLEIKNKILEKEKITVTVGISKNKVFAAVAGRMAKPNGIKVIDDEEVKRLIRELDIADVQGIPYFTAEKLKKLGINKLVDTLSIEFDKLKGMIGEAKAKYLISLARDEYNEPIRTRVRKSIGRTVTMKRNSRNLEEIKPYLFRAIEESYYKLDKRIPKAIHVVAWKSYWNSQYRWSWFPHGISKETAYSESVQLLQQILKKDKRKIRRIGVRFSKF
The class given is biochemical, Sulfolobus solfataricus. The following applies: for XNTP polymerization relative to compound 10: 30 minutes at 23 °C; for XNTP polymerization relative to compound 14: compound 16 at 2 Mm, compound 17 at 0.5, 1, 2, 3 Mm, 30 minutes at 37 °C, FIG. 13. As for the experimental part:
(§1) PEM activity of compound 12 was tested in primer extension assays using the HIV2 100mer template. Primer extension reactions included the following reagents: 50 Mm TrisCl, 200 Mm NH4Oac, 20% PEG8K, 5% NMS, 0.6 nmol PP-60.20, 0.6 Mm MnCl2, 2.75 μg/μl Eco single-strand binding protein (SSB), 1 M urea, 50 pmol each XNTP, 1.1 pmol template, 1 pmol [COMPOUND LEFT OUT] primer, 1.2 μg/μl purified recombinant C4760 DNA polymerase (SEQ ID NO: 2), and 0.5, 1, or 1.5 Mm PEM. 10 μL primer extension reactions were run for 30 minutes at 23 °C and reaction products were analyzed by gel electrophoresis.
as §1, with “compounds 13 and 14” for “compound 12”, “(a variant of DPO4, see SEQ” for “(SEQ”, “1, 1.52,” for “1,”, “2.5” for “1.5”, “electrophoresis. A representative gel showing primer extension products is presented in FIG. 11 (the position of the full length HIV2 100mer is indicated by the arrow).” for “electrophoresis.”
PEM activity of compounds 16, 17, and 18 and combinations thereof were tested in primer extension assays using the HIV2-derived 100mer template. […] 10 μL primer extension reactions were run for 30 minutes at 37 °C and reaction products were analyzed by gel electrophoresis. A representative gel showing primer extension products is presented in FIG. 13 (the position of a 100mer product is indicated by the arrow).

Assay [2] deals with T1, C4760 DNA polymerase (a variant of DPO4). In words: Primer extension on 45mer RNA template (HIV2) with C4760 polymerase, gel. The class given is biochemical, Sulfolobus solfataricus. The following applies: 2 Mm PEM, 45mer RNA template derived from HIV2, Kod SSB, 30 minutes at 37 °C. As to the method:
To begin to investigate the potential of PEMs to enhance diverse polymerase reactions, the ability of PEMS to enable DNA polymerase to utilize RNA as a template was tested. An initial screen of several compounds set forth in Table 1 was conducted using a 45mer RNA template derived from the HIV2 genome sequence. Primer extension reactions included the following reagents: 50 Mm TrisCl, 200 Mm NH4OAc, 20% PEG8K, 5% NMS, 0.6 nmol PP-60.20, 0.6 Mm MnCl2, 2 μg Kod single-strand binding protein (SSB), 1 M urea, 50 pmol each XNTP, 0.5 pmol template, 0.5 pmol [COMPOUND LEFT OUT] primer, 1.2 μg purified recombinant C4760 DNA polymerase (a variant of DPO4, see SEQ ID NO: 2), and 2 Mm PEM. 10 μL primer extension reactions were run for 30 minutes at 37 °C and reaction products were analyzed by gel electrophoresis.

The next assay relates to nucleic acid polymerase. In words: PEM activity summary: primer extension on 45mer, 100mer, 150mer, 222mer DNA templates, gel (Table 2). The class given is biochemical. The following applies: preliminary functional characterization. As to the method:
In some instances, the PEM compounds of the present disclosure were tested in primer extension reactions using DNA templates of the following lengths: A) 45mer; B) 100mer; C) 150mer; and D) 222mer.

The mark [3] stands for this setting: 0.5, 1, 1.52, or 2.5 Mm PEM, FIG. 11.

Like-named read-outs stand apart in the source and are kept apart here.

In the case of `O=C(O)c1ccc(-n2cc(-c3cncc(-c4cn(-c5ccc(C(=O)O)c(O)c5)nn4)c3)nn2)cc1O` [Compound 2, 4,4′-(pyridine-3,5-diylbis(1H-1,2,3-triazole-4,1-diyl))bis(2-hydroxybenzoic acid)], in the assay on DNA polymerase (FIG. 5, PEM at various concentrations, vs no PEM additive), the “primer extension activity with XNTPs” value is reported as “significantly enhances primer extension activity”. Turning to `O=C(O)c1ccc(-n2cc(-c3cccc(-c4cn(-c5ccc(C(=O)O)c(O)c5)nn4)c3)nn2)cc1O` [Compound 3, 4,4′-(1,3-phenylenebis(1H-1,2,3-triazole-4,1-diyl))bis(2-hydroxybenzoic acid)], the “primer extension products with XNTPs” value in the assay with DNA polymerase was “considerably longer extension products”. As to `O=C(O)c1ccc(-n2cc(-c3ccc4[nH]c5ccc(-c6cn(-c7ccc(C(=O)O)c(O)c7)nn6)cc5c4c3)nn2)cc1O` [Compound 4, 4,4′-((9H-carbazole-3,6-diyl)bis(1H-1,2,3-triazole-4,1-diyl))bis(2-hydroxybenzoic acid)], the “primer extension products with XNTPs” value in the assay with DNA polymerase is listed as “considerably longer extension products”. With `N#Cc1cc(-c2cn(-c3ccc(O)c(C(=O)O)c3)nn2)nc(-c2cn(-c3ccc(O)c(C(=O)O)c3)nn2)c1` [Compound 12, 5,5′-((4-cyanopyridine-2,6-diyl)bis(1H-1,2,3-triazole-4,1-diyl))bis(2-hydroxybenzoic acid)], the “XNTP polymerization relative to compound 10” value in assay [1] (0.5, 1, or 1.5 Mm PEM, FIG. 10) was “comparable to that of compound 10”. For the molecule `Cc1cc(-c2cn(-c3ccc(C(=O)O)c(O)c3)nn2)nc(-c2cn(-c3ccc(C(=O)O)c(O)c3)nn2)c1` [Compound 13, 4,4′-((4-methylpyridine-2,6-diyl)bis(1H-1,2,3-triazole-4,1-diyl))bis(2-hydroxybenzoic acid)], in assay [1] (setting [3]), the “XNTP polymerization relative to compound 10” value is recorded as “comparable to that of compound 10”. For `CCOC(=O)c1cc(-c2cn(-c3ccc(C(=O)O)c(O)c3)nn2)nc(-c2cn(-c3ccc(C(=O)O)c(O)c3)nn2)c1` [Compound 14, 4,4′-((4-(ethoxycarbonyl)pyridine-2,6-diyl)bis(1H-1,2,3-triazole-4,1-diyl))bis(2-hydroxybenzoic acid)], in assay [1] (setting [3]), the “XNTP polymerization relative to compound 10” value was “comparable to that of compound 10”. In the case of `COC(=O)c1cc(-c2cn(-c3ccc(C(=O)O)c(O)c3)nn2)nc(-c2cn(-c3ccc(C(=O)O)c(O)c3)nn2)c1` [Compound 16, 4,4′-((4-(methoxycarbonyl)pyridine-2,6-diyl)bis(1H-1,2,3-triazole-4,1-diyl))bis(2-hydroxybenzoic acid)], the “XNTP polymerization relative to compound 14” value in assay [1] is “comparable to that of compound 14”. Regarding `CCNC(=O)c1cc(-c2cn(-c3ccc(C(=O)O)c(O)c3)nn2)nc(-c2cn(-c3ccc(C(=O)O)c(O)c3)nn2)c1` [Compound 17, 4,4′-((4-(ethylcarbamoyl)pyridine-2,6-diyl)bis(1H-1,2,3-triazole-4,1-diyl))bis(2-hydroxybenzoic acid)], the “XNTP polymerization relative to compound 14” value in assay [1] was “comparable to that of compound 14”. Also, the “PEM activity on RNA template” value in assay [2] is recorded as “display PEM activity on an RNA template”. With `CCNC(=O)c1cc(-c2cn(-c3ccc(C(=O)NCC(=O)NCC(=O)O)c(C(F)(F)F)c3)nn2)nc(-c2cn(-c3ccc(C(=O)NCC(=O)NCC(=O)O)c(C(F)(F)F)c3)nn2)c1` [Compound 113, 2,2′-((2,2′-((4,4′-((4-(ethylcarbamoyl)pyridine-2,6-diyl)bis(1H-1,2,3-triazole-4,1-diyl))bis(2-(trifluoromethyl)benzoyl))bis(azanediyl))bis(acetyl))bis(azanediyl))diacetic acid], the “Functional Category: PEM effect” value in the assay on nucleic acid polymerase was “PEM effect”. As to `O=C(O)c1ccc(-n2cc(-c3ccc(-c4cn(-c5ccc(C(=O)O)c(C(F)(F)F)c5)nn4)o3)nn2)cc1C(F)(F)F` [Compound 118, 4,4′-(furan-2,5-diylbis(1H-1,2,3-triazole-4,1-diyl))bis(2-(trifluoromethyl)benzoic acid)], in assay [2], the “PEM activity on RNA template” value is “display PEM activity on an RNA template”.
